Experiments:
Assay in all cases: biochemical
Type in all cases: biochemical
[1] = target: 363 human kinases (including Aurora A/B/C) (Homo sapiens, UniProt P17612); conditions: PKA; for remaining activity at 0.1 µM: 100 nM; for remaining activity at 0.1 µM / remaining activity at 0.5 µM: read-out: % Enzyme Activity (relative to DMSO controls)
Source text: (§1) However, the Aurora A/B selectivity ratios derived from our in vitro and in vivo data can be compared to prioritize inhibitors.

[2] = target: 363 human kinases (including Aurora A/B/C) (Homo sapiens, UniProt P31751); conditions: AKT2, [ATP] 100 µM; for remaining activity at 0.1 µM: 100 nM; for remaining activity at 0.1 µM / remaining activity at 0.5 µM: read-out: % Enzyme Activity (relative to DMSO controls)
Source text: as §1

[3] = target: T1, 363 human kinases (including Aurora A/B/C) (Homo sapiens, UniProt P43403); conditions: ZAP70; for remaining activity at 0.1 µM: 100 nM; for remaining activity at 0.1 µM / remaining activity at 0.5 µM: read-out: % Enzyme Activity (relative to DMSO controls)
T1 sequence (P43403 1-619): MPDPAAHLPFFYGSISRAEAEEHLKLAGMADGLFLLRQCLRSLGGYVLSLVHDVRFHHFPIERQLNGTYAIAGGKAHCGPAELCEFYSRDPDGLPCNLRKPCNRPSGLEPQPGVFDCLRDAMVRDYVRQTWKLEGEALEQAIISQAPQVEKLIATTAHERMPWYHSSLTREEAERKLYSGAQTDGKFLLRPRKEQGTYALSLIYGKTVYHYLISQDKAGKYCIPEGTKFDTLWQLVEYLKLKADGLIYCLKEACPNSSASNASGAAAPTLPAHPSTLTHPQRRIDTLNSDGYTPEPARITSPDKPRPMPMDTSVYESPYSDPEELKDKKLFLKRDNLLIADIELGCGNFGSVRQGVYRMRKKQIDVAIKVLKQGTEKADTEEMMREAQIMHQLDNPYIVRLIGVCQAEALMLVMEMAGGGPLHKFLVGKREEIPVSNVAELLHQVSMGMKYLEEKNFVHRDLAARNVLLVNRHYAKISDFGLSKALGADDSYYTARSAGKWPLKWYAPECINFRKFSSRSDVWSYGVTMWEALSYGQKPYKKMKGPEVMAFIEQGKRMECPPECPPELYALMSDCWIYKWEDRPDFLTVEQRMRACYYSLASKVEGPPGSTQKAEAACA
Source text: as §1

[4] = target: 363 human kinases (including Aurora A/B/C) (Homo sapiens, UniProt P49759); conditions: CLK1, [ATP] 2.5 µM; for remaining activity at 0.1 µM: 100 nM; for remaining activity at 0.1 µM / remaining activity at 0.5 µM: read-out: % Enzyme Activity (relative to DMSO controls)
Source text: as §1

[5] = target: T2, 363 human kinases (including Aurora A/B/C) (Homo sapiens, UniProt Q08881); conditions: ITK; for remaining activity at 0.1 µM: 100 nM; for remaining activity at 0.1 µM / remaining activity at 0.5 µM: read-out: % Enzyme Activity (relative to DMSO controls)
T2 sequence (Q08881 1-620): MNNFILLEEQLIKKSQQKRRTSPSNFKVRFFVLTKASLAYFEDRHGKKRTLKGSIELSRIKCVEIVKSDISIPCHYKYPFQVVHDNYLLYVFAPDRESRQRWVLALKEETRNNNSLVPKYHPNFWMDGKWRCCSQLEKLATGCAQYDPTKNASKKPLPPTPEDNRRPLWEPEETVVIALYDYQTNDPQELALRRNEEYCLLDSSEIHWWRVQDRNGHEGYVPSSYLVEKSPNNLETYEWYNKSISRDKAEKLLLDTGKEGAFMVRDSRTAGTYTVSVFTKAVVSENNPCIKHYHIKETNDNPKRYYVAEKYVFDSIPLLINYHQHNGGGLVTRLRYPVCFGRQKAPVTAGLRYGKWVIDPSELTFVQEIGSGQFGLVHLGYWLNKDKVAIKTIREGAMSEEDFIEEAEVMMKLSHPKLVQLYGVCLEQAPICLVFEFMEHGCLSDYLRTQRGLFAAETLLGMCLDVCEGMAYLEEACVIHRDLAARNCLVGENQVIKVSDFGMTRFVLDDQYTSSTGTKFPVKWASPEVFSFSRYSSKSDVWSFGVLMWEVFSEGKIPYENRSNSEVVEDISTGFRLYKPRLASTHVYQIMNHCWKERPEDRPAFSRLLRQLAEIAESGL
Source text: as §1

[6] = target: 363 human kinases (including Aurora A/B/C) (Homo sapiens, UniProt Q7KZI7); conditions: MARK2/PAR-1Ba; for remaining activity at 0.1 µM: 100 nM; for remaining activity at 0.1 µM / remaining activity at 0.5 µM: read-out: % Enzyme Activity (relative to DMSO controls)
Source text: as §1

[7] = target: T3, 363 human kinases (including Aurora A/B/C) (Homo sapiens, UniProt Q8WTQ7); conditions: GRK7; for remaining activity at 0.1 µM: 100 nM; for remaining activity at 0.1 µM / remaining activity at 0.5 µM: read-out: % Enzyme Activity (relative to DMSO controls)
T3 sequence (Q8WTQ7 1-553): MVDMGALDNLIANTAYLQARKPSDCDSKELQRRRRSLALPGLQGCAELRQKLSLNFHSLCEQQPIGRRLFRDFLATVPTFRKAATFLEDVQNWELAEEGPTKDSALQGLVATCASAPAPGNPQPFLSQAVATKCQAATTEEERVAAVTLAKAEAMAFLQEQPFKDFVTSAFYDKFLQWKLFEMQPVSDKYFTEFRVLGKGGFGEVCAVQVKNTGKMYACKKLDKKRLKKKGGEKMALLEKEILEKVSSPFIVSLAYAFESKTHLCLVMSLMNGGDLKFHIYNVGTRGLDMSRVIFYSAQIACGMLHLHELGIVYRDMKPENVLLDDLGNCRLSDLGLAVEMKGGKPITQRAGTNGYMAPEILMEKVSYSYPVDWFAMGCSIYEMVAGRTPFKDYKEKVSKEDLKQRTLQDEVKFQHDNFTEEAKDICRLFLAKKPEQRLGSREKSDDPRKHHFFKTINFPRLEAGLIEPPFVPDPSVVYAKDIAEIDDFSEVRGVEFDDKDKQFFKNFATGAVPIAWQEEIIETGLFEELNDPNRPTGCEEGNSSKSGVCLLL
Source text: as §1

[8] = target: 363 human kinases (including Aurora A/B/C) (Homo sapiens, UniProt Q9HBH9); conditions: MNK2; for remaining activity at 0.1 µM: 100 nM; for remaining activity at 0.1 µM / remaining activity at 0.5 µM: read-out: % Enzyme Activity (relative to DMSO controls)
363 human kinases (including Aurora A/B/C) (Homo sapiens, UniProt Q9HBH9), sequence (Q9HBH9 whole entry): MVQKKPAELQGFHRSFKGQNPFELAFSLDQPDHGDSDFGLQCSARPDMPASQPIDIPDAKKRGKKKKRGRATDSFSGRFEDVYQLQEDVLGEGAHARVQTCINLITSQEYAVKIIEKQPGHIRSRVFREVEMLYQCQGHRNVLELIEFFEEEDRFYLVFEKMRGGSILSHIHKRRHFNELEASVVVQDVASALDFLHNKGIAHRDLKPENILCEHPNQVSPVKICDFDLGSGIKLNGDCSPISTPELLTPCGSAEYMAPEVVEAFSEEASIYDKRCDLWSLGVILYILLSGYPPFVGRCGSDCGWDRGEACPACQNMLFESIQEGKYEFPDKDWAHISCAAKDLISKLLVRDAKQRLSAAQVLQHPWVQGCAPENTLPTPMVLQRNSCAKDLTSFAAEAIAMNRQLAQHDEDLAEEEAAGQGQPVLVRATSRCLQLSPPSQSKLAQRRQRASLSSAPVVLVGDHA
Source text: as §1

363 human kinases (including Aurora A/B/C) (Homo sapiens, UniProt Q7KZI7), sequence (Q7KZI7 whole entry): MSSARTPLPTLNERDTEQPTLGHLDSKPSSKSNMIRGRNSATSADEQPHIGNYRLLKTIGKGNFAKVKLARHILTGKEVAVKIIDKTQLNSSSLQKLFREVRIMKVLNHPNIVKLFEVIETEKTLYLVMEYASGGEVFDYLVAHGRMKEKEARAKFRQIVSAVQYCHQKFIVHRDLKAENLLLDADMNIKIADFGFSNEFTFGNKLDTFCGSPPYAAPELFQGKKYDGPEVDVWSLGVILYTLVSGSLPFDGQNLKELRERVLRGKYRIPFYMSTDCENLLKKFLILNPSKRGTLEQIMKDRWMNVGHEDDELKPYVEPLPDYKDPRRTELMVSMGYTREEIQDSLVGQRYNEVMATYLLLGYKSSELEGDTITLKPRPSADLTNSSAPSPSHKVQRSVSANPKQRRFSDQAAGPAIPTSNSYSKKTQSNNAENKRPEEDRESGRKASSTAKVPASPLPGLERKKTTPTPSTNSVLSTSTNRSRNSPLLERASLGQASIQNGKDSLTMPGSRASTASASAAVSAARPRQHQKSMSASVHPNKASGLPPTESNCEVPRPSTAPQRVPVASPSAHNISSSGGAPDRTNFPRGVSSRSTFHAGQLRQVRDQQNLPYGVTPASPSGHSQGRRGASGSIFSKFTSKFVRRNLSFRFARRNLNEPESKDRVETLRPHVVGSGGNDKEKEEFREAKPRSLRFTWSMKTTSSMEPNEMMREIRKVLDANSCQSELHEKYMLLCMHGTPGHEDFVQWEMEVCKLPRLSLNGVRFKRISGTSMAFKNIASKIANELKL
363 human kinases (including Aurora A/B/C) (Homo sapiens, UniProt P31751), sequence (P31751 whole entry): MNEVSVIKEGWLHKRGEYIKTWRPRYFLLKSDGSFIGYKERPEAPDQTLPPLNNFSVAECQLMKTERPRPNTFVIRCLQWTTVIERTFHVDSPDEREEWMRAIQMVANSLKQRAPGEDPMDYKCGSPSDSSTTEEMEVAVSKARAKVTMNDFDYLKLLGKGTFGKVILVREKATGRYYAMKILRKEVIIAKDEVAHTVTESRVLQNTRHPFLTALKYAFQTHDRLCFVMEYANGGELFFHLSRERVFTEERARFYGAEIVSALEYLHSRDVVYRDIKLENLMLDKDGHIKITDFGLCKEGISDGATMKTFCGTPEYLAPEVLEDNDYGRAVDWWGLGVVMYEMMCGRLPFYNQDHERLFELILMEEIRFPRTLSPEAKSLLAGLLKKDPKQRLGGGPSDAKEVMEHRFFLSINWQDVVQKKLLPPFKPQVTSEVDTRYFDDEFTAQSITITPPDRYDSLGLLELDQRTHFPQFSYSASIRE
363 human kinases (including Aurora A/B/C) (Homo sapiens, UniProt P49759), sequence (P49759 whole entry): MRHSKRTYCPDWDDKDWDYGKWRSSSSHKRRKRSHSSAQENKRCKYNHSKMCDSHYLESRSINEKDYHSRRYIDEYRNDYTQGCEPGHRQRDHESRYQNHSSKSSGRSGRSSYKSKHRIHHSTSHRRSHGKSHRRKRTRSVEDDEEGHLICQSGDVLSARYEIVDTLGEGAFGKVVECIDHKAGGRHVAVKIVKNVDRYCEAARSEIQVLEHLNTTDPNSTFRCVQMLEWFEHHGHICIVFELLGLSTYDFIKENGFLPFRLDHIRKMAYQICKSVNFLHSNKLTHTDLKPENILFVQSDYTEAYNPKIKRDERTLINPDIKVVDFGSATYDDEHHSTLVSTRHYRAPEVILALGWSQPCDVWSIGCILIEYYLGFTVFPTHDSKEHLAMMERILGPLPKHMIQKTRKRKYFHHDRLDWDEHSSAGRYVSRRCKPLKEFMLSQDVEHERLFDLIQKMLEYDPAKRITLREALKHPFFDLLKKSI

In the case of `CCn1cc(-c2ccnc3[nH]c(-c4cccc(CN(C)C)c4)cc23)c(-c2ccc(NC(=O)N(C)C)cc2)n1` [GSK1070916], the remaining activity at 0.1 µM [1] is reported as 95.5%, the remaining activity at 0.1 µM [2] is reported as 95.8% and the remaining activity at 0.1 µM [3] is reported as 105%. For the same compound, the remaining activity at 0.1 µM [4] was 114%, the remaining activity at 0.1 µM [5] was 77.7% and the remaining activity at 0.1 µM [6] was 96.9%. For the same compound, the remaining activity at 0.1 µM [7] was 100% and the remaining activity at 0.1 µM [8] was 96.9%.
`O=C(O)[C@]1(Cc2cccc(Nc3nccs3)n2)CC[C@@H](Oc2cccc(Cl)c2F)CC1` [MK-5108] gave a remaining activity at 0.1 µM [1] of 100%, a remaining activity at 0.5 µM ([1]; 500 nM) of 96.4% and a remaining activity at 0.1 µM [2] of 94.5%. It also gave a remaining activity at 0.5 µM ([2]; 500 nM) of 107%, a remaining activity at 0.1 µM [3] of 103% and a remaining activity at 0.5 µM ([3]; 500 nM) of 113%. It also gave a remaining activity at 0.1 µM [4] of 68.1%, a remaining activity at 0.5 µM ([4]; 500 nM) of 29.1% and a remaining activity at 0.1 µM [5] of 89%. For the same compound, the remaining activity at 0.5 µM ([5]; 500 nM) was 46.3%, the remaining activity at 0.1 µM [6] was 96.8% and the remaining activity at 0.5 µM ([6]; 500 nM) was 97.8%. It also gave a remaining activity at 0.1 µM [7] of 98.7%, a remaining activity at 0.5 µM ([7]; 500 nM) of 94.2% and a remaining activity at 0.1 µM [8] of 105%. The remaining activity at 0.5 µM ([8]; 500 nM) was 95%.
In the case of `O=C(c1cccc(Cl)c1F)N1CCN(Cc2cccc(Nc3nccs3)n2)CC1` [MK-8745], the “% Enzyme Activity (relative to DMSO controls)” value ([1]; 500 nM) is reported as 96.39%, the remaining activity at 0.5 µM ([1]; 500 nM) is reported as 98.9% and the “% Enzyme Activity (relative to DMSO controls)” value ([2]; 500 nM) is reported as 96.21%. The remaining activity at 0.5 µM ([2]; 500 nM) was 96.8%, the “% Enzyme Activity (relative to DMSO controls)” value ([3]; 500 nM) was 97.69% and the remaining activity at 0.5 µM ([3]; 500 nM) was 109%. For the same compound, the “% Enzyme Activity (relative to DMSO controls)” value ([4]; 500 nM) was 91.67%, the remaining activity at 0.5 µM ([4]; 500 nM) was 92.5% and the “% Enzyme Activity (relative to DMSO controls)” value ([5]; 500 nM) was 102.90%. The remaining activity at 0.5 µM ([5]; 500 nM) was 104%, the “% Enzyme Activity (relative to DMSO controls)” value ([6]; 500 nM) was 103.22% and the remaining activity at 0.5 µM ([6]; 500 nM) was 104%. For the same compound, the “% Enzyme Activity (relative to DMSO controls)” value ([7]; 500 nM) was 97.48%, the remaining activity at 0.5 µM ([7]; 500 nM) was 101% and the “% Enzyme Activity (relative to DMSO controls)” value ([8]; 500 nM) was 97.70%. It also gave a remaining activity at 0.5 µM ([8]; 500 nM) of 97.9%.

Source: paper PMC4685510, “A Cell Biologist’s Field Guide to Aurora Kinase Inhibitors” (Frontiers in Oncology, 2015)
